According to patent US11771685B2, “Compounds for the treatment of neurological or mitochondrial diseases” (MUSC FOUNDATION FOR RESEARCH DEVELOPMENT, priority 2018, dated 2023):

Legend:
[1] = test system: Zebrafish larvae; experiment: In vivo toxicology in zebrafish larvae
Protocol: Zebrafish larvae, 7 days post-fertilization (dpf), were exposed to compounds at 20, 15, 10, and 5 μM, six larvae per compound. Animals were observed 1, 5, and 24 hr after dosing for overt toxicity (altered survival, morbidity, morphological deformity). Heart rate, behavior, and startle response were monitored at each time point.
Zebrafish (AB strain) were obtained from the Zebrafish International Resource Center (supported by P40 RR012546 from NIH—NCRR). Zebrafish were maintained and crossed according to standard methods (Westerfield, 2000). Fertilized eggs were collected and placed in E3 embryo medium and positioned in an incubator set at 28.5° C. with a 14/10-hr light/dark cycle (Kimmel et al., 1995). To determine the lethal dose of each compound, 96-well plates containing one zebrafish (7 days post-fertilization, dpf) per well in 100 μL of tank water were used. 100 μL of each compound (0.5-15 μM) was added to each well for 12 animals (one row) for a final volume of 200 μL. One row of larvae was used as dimethyl sulfoxide (DMSO)-only controls. […] All zebrafish studies were approved by the Medical University of South Carolina Institutional Animal Care and Use Committee (#180278) and performed in accordance with the guidelines.
Using a 96-well plate, 7 dpf zebrafish were placed one per well with 100 μL of tank water. 100 μL of each compound was then added to each well for 12 animals (one row) for a final volume of 200 μL. One row of zebrafish larvae was used as DMSO only controls.

[2] = test system: HT22 cells; experiment: HT22 oxytosis (glutamate-induced cell death) neuroprotection assay; format: cell-based, mouse; details: 10 mM Glu
Protocol: The HT22 murine hippocampal cell system was chosen as an initial phenotypic screen for neuroprotective efficacy (Andreux et al., 2013; Andreux et al., 2014; Ohlow et al., 2017; Schubert and Maher, 2012). HT22 cells exposed to high extracellular Glu ([…]) undergo oxytosis, a non-apoptotic programmed cell death involving glutathione (GSH) depletion followed by ROS accumulation, oxidative damage, and a cytotoxic signaling cascade (Tan et al., 2001). Glu blocks the −xC cystine antiporter, causing (Tan et al., 2001) cells to accumulate severe oxidative stress, mitochondrial depolarization, disrupted mitochondrial morphology, and Ca^2+ influx (Tan et al., 2001; Yang et al., 2011; Cheng et al., 2013—cellular events that may occur in neurological diseases, including epilepsy. Thus, the immortalized HT22 cell line is a well-established model of neuronal oxidative stress (Sagara and Schubert, 1998; Matsumoto et al., 1996; Albrecht et al., 2010; Ha and Park, 2006; van Leyen et al., 2005; Tobaben et al., 2011), and a verified model of neurodegeneration to screen for potential neuroprotective drugs (Albrecht et al., 2010; van Leyen et al., 2008; Lewerenz et al., 2009; Lewerenz et al., 2003).
Consistent with that work, most of the 2-amino compounds achieved protection of HT22 cells against glutamate-induced oxytosis in the nM to μM range. […] Neuroprotection based on relative cell viability compared to +Glu and −Glu control cells was measured.
The HT22 neuronal cell line is a subclone of HT4, derived from the mouse hippocampus (Morimoto and Koshland, 1990). […] The HT22 cells used in this study were kindly provided by Dr. David Schubert (The Salk Institute for Biological Studies, La Jolla, CA, USA). The cells were grown in Dulbecco's Modified Eagle's Medium (DMEM/high glucose) supplemented with 10% fetal bovine serum (Hyclone) and 5 mL of antibiotic-antimycotic (Amphotericin B, Penicillin, and Streptomycin; Invitrogen) at 37° C. in 5% CO2.
HT-22 cells were seeded onto 96-well plates at 2.5×10^3 cells per well in 75 μL of medium and maintained at 37° C. in 5% CO2 overnight prior to the initiation of experimental treatments. For glutamate toxicity testing, cells were subsequently treated with 25 μL of medium containing glutamate (monosodium glutamate, Sigma, 1 M stock concentration in media, to achieve a final concentration of 10 mM) plus compound (stock in DMSO) and maintained at 37° C. in 5% CO2 for 24 hr. CellTiter-Blue® (resazurin cell viability assay reagent) was then added to each well at a final concentration of 0.125 mg/mL. The mixture was allowed to incubate for 2-4 hr until sufficient color change occurred. Cell viability was measured as a function of resorufin fluorescence intensity using a Tecan M200 Pro spectrophotometer, 560 nm/590 nm (excitation/emission). Cell viability was calculated as a percentage compared with untreated controls. EC50s were determined using GraphPad Prism's “log(inhibitor) vs. normalized response-Variable slope” function. Morphology of HT22 cells following treatments was determined by phase-contrast microscopy.
Statistical analyses were performed with GraphPad Prism 6 software. For the in vitro HT22 oxytosis assay, dose-response data were fit using GraphPad Prism's log(inhibitor) vs normalized response-variable slope parameters to determine EC50 values and 95% confidence intervals. For the zebrafish locomotive anti-seizure activity data, multiple comparisons were made using a one-way analysis of variance (ANOVA) with a Kruskal-Wallis Test, followed by the Dunn's Method to determine significant differences between all pairs or between control and experimental groups using the Dunn Method for Joint Ranking. Differences were considered statistically significant when p<0.05. Data from zebrafish experiments are represented as scatter dot plots of individual measurements, with means±standard deviation indicated by bars.

[3] = In vivo pharmacokinetics in CD-1 mice; details: male, CD-1, mouse, plasma, ip, 20 mg/kg, intraperitoneal 20 mg/kg, 5% DMSO: 95% neobee
[4] = Rotarod neurotoxicity test in mice; format: in vivo, mouse; details: for Neurotoxicity (Rotorod assay), animals showing toxicity: 5% DMSO: 95% Neobee; for Rotarod (Tox) N/T, mice that fell off: 1 hr, 32 mA study
[5] = Liver microsome stability; format: in vitro ADME; details: in vitro; for half-life: liver microsomes, read-out: Liver microsome stability (t1/2)
[6] = Brain tissue binding; format: in vitro ADME; details: in vitro, read-out: Brain tissue binding (% bound)
[7] = Mus musculus, HT-22, 24 h, HT22 cells, 24 hr, 95% CI in parentheses

Compound | survival ([1]; 24 hr, highest concentrations) | concentration with no overt toxicity ([1]; AB, zebrafish, in vivo) | EC50 ([2]; HT22 cells, 24 hr, 95% CI in parentheses) | EC50 [2, 7] | concentration lethal/toxic at 24 hr ([1]; 7 dpf larvae, 24 hr) | AUC(0-inf) [3] | Cmax [3] | MRT inf [3] | Tmax [3] | Neurotoxicity (Rotorod assay), animals showing toxicity [4] | Liver microsome stability (t1/2) ([5]; listed as NT-181) | half-life [5] | fraction unbound [6] | Rotarod (Tox) N/T, mice that fell off ([4]; 50 mg/kg) | Rotarod (Tox) N/T, mice that fell off ([4]; 100 mg/kg) | Rotarod (Tox) N/T, mice that fell off ([4]; 200 mg/kg) | Rotarod (Tox) N/T, mice that fell off ([4]; 300 mg/kg) | Liver microsome stability (t1/2) ([5]; listed as NT-102) | EC50 ([2]; Mus musculus, HT-22, HT22 cells)
CC(C)CCOC1=CC(=O)c2ccccc2C1=O [Compound 25, 2-(Isopentyloxy)naphthalene-1,4-dione] | ⅔ | ≤ 10 µM | 23.9 nM | ~24 nM | – | – | – | – | – | – | – | – | – | – | – | – | – | – | –
CCC#CCNC1=CC(=O)c2ccccc2C1=O [Compound 3, 2-(Pent-2-yn-1-ylamino)naphthalene-1,4-dione] | – | – | – | 1010 nM | above 5 μM | 478 ng·h/mL | 147 ng/mL | 4.2 h | 1 h | 1/71 showed toxicity | >1 h | > 1 h | 0.02 to 0.03 | – | – | – | – | – | –
CC(C)CCNC1=CC(=O)c2ccccc2C1=O [Compound 17, 2-(Isopentylamino)naphthalene-1,4-dione] | – | – | – | – | – | 1730 ng·h/mL | 320 ng/mL | 4.39 h | 1 h | 0/72 showed toxicity | – | > 1 h | 0.02 to 0.03 | 0/8 | 0/8 | 1/8 | 3/8 | >1 h | > 12000 nM
